Three molecules from ChEMBL document CHEMBL2074278, “Temocaprilat, a novel angiotensin-converting enzyme inhibitor, is excreted in bile via an ATP-dependent active transporter (cMOAT) that is deficient in Eisai hyperbilirubinemic mutant rats (EHBR)” (J Pharmacol Exp Ther, 1997) can be followed below.

Common to all, as to type: functional, cell membranes, Sprague-Dawley, Bile canalicular membrane vesicle
Data set [1] deals with T1, ATP-binding cassette sub-family C member 2 (Rattus norvegicus, UniProt Q63120). In words: TP_TRANSPORTER: inhibition of DNP-SG uptake in bile canalicular membrane vesicles from SD rat.
The target of data set [2] is T1, ATP-binding cassette sub-family C member 2. In words: TP_TRANSPORTER: inhibition of Temocaprilat uptake in bile canalicular membrane vesicles from SD rat.
Substrate in data set [3]: O=C(O)CN1C[C@@H](c2cccs2)SC[C@H](N[C@@H](CCc2ccccc2)C(=O)O)C1=O
Kind of data set: TP_TRANSPORTER: uptake in bile canalicular membrane vesicles from SD rat.

Regarding `O=C(O)CN1C[C@@H](c2cccs2)SC[C@H](N[C@@H](CCc2ccccc2)C(=O)O)C1=O` [TEMOCAPRILAT], in data set [1], the affinity corresponds to a Ki of 343 µM.
On to `N[C@@H](CCC(=O)N[C@H](CSc1ccc([N+](=O)[O-])cc1[N+](=O)[O-])C(=O)NCC(=O)O)C(=O)O`, for which the inhibition constant Ki (commonly the equilibrium dissociation constant of an inhibitor or competing ligand from its target) in data set [2] is 25.8 µM.

B1: ATP-binding cassette sub-family C member 2 (Rattus norvegicus) (protein)
chain: MDKFCNSTFWDLSLLESPEADLPLCFEQTVLVWIPLGFLWLLAPWQLYSVYRSRTKRSSITKFYLAKQVFVVFLLILAAIDLSLALTEDTGQATVPPVRYTNPILYLCTWLLVLAVQHSRQWCVRKNSWFLSLFWILSVLCGVFQFQTLIRALLKDSKSNMAYSYLFFVSYGFQIVLLILTAFSGPSDSTQTPSVTASFLSSITFSWYDRTVLKGYKHPLTLEDVWDIDEGFKTRSVTSKFEAAMTKDLQKARQAFQRRLQKSQRKPEATLHGLNKKQSQSQDVLVLEEAKKKSEKTTKDYPKSWLIKSLFKTFHVVILKSFILKLIHDLLVFLNPQLLKLLIGFVKSSNSYVWFGYICAILMFAVTLIQSFCLQSYFQHCFVLGMCVRTTVMSSIYKKALTLSNLARKQYTIGETVNLMSVDSQKLMDATNYMQLVWSSVIQITLSIFFLWRELGPSILAGVGVMVLLIPVNGVLATKIRNIQVQNMKNKDKRLKIMNEILSGIKILKYFAWEPSFQEQVQGIRKKELKNLLRFGQLQSLLIFILQITPILVSVVTFSVYVLVDSANVLNAEKAFTSITLFNILRFPLSMLPMVTSSILQASVSVDRLERYLGGDDLDTSAIRRVSNFDKAVKFSEASFTWDPDLEATIQDVNLDIKPGQLVAVVGTVGSGKSSLVSAMLGEMENVHGHITIQGSTAYVPQQSWIQNGTIKDNILFGSEYNEKKYQQVLKACALLPDLEILPGGDMAEIGEKGINLSGGQKQRVSLARAAYQDADIYILDDPLSAVDAHVGKHIFNKVVGPNGLLAGKTRIFVTHGIHFLPQVDEIVVLGKGTILEKGSYRDLLDKKGVFARNWKTFMKHSGPEGEATVNNDSEAEDDDDGLIPTMEEIPEDAASLAMRRENSLRRTLSRSSRSSSRRGKSLKNSLKIKNVNVLKEKEKEVEGQKLIKKEFVETGKVKFSIYLKYLQAVGWWSILFIILFYGLNNVAFIGSNLWLSAWTSDSDNLNGTNNSSSHRDMRIGVFGALGLAQGICLLISTLWSIYACRNASKALHGQLLTNILRAPMRFFDTTPTGRIVNRFSGDISTVDDLLPQTLRSWMMCFFGIAGTLVMICMATPVFAIIIIPLSILYISVQVFYVATSRQLRRLDSVTKSPIYSHFSETVTGLPIIRAFEHQQRFLAWNEKQIDINQKCVFSWITSNRWLAIRLELVGNLVVFCSALLLVIYRKTLTGDVVGFVLSNALNITQTLNWLVRMTSEAETNIVAVERISEYINVENEAPWVTDKRPPADWPRHGEIQFNNYQVRYRPELDLVLKGITCNIKSGEKVGVVGRTGAGKSSLTNCLFRILESAGGQIIIDGIDVASIGLHDLRERLTIIPQDPILFSGSLRMNLDPFNKYSDEEVWRALELAHLRSFVSGLQLGLLSEVTEGGDNLSIGQRQLLCLGRAVLRKSKILVLDEATAAVDLETDSLIQTTIRKEFSQCTVITIAHRLHTIMDSDKIMVLDNGKIVEYGSPEELLSNRGSFYLMAKEAGIENVNHTEL
Regarding B1, the Km (in general, the concentration of substrate that gives half-maximal velocity) in data set [3] turned out to be 92.5 µM.
